Source: patent US20250049791A1, “Synthesis of MEK7 Inhibitors and methods of Use Thereof” (Northwestern University, priority 2023, published 2025)
Like-named read-outs stand apart in the source and are kept apart here.

Target: T1, recombinant active full-length human MEK7 (Homo sapiens, UniProt O14733)
T1 construct: recombinant active full-length human MEK7 (Carna Biosciences); purchased Carna Biosciences
T1 sequence (O14733 1-419): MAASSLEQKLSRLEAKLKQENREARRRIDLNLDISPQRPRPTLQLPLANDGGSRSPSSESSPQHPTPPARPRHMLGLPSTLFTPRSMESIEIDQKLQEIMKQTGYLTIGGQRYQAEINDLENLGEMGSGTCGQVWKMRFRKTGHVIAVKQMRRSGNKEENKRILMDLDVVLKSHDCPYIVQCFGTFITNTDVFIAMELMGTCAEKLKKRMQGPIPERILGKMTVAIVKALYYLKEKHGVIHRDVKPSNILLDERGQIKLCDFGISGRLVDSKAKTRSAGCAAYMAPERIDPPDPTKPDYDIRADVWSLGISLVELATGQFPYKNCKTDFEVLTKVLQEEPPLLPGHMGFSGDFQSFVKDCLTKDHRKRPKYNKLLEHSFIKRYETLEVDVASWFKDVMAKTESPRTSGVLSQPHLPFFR
Assay: ADP-Glo kinase activity assay, MEK7 with JNK1 substrate
Type: biochemical
Conditions: for in vitro activity against MAP2K7, in words: ADP-Glo assay, comparison within the series
Method: Procedure for a 5 μL Kinase reaction using the ADP-Glo Kinase Assay Kit from Promega. Staurosporine was used as the positive control, and DMSO (vehicle) was employed as the negative control. Activity of recombinant active full-length human MEK7 (Carna Biosciences) was measured with recombinant full-length human substrate JNK1 (MAPK8). Using a Mantis, a mixture of MEK7 and JNK1 was dispensed into a 384-well low volume white Proxiplate. For each well, 4 ng of MEK7 and 600 ng of JNK1 in kinase buffer (CST) were used, accounting for 1 μL of this mixture per well. Inhibitor was prepared in a DMSO solution (40 mM). A dose-response dilution was performed in a 384-well Echo transfer plate. Using an Echo Access, 10 nL of each solution was dispensed into the same 384-well low volume white Proxiplate as above. This mixture was allowed to incubate for 30 minutes at room temperature. Using a Mantis, 1 uL of an 8 μM ATP solution was added to each well, and the plate was allowed to incubate for another 1 hour at room temperature. Using the Mantis again, 4 μL of ADP Glo Reagent was dispensed into each well, and the plate was allowed to incubate for 45 min at room temperature. Finally, 9 μL of Kinase Detection Reagent was added manually to each well, and the plate was allowed to incubate for 45 minutes at room temperature. Luminescence was read on a Synergy Neo2 Plate Reader with filter cubes 3 and 114. Integration time was set to 0.20 seconds, gain set to 160, and read height set at 6 mm. All experiments were performed in triplicate on the plate, and at least in one separate technical duplicate was performed.
MEK4 selectivity was performed in the same manner with activated MEK4 (Carna Biosciences). Here, p-38α was employed as the kinase substrate in lieu of JNK1 due to the availability of reagents. […] To probe the ATP-competitive nature of 25, this compound was subjected to a similar assay forgoing the 30 minute incubation time described above (STAR Protocols 2021, 2, 100717). The results are tabulated below in compound characterization. Potency determined by duplicate of triplicates corresponded to a IC50 value, which is in line with the ratio difference observed among other covalent inhibitors (for examples, see Cell Chem. Biol. 2020, 27, 1285).

[1] = 30 min preincubation, overall value of two experiments, read-out: MEK7 IC50
[2] = MEK7 IC50, first experiment (IC50±SEM, n=3), 30 min preincubation, first value in brackets
[3] = MEK7 IC50, second experiment (IC50±SEM, n=3), 30 min preincubation, second value in brackets
[4] = 30 min preincubation, read-out: MEK7 IC50
[5] = 30 min preincubation, first value in brackets
[6] = read-out: MEK7 IC50, second experiment (IC50±SEM, n=3), 30 min preincubation, second value in brackets

Row | SMILES | IC50 [1] [nM] | in vitro activity against MAP2K7, in words | IC50 [2] [nM] | IC50 [3] [nM] | other results
1 | CC=CC(=O)Nc1cccc(Oc2cc(NC)ncn2)c1 (mixture of isomers) [Compound 10, (E/Z)—N-(3-((6-(methylamino)pyrimidin-4-yl)oxy)phenyl) but-2-enamide] | > 80000 | less potent | – | – | –
2 | CNc1cc(Oc2ccc(NC(=O)CCl)cc2)ncn1 [Compound 6, 2-chloro-N-(4-((6-(methylamino)pyrimidin-4-yl)oxy)phenyl)acetamide] | 1800 | less active than compound 8 | 1500 ± 210 | 2100 ± 1100 | –
3 | C=CC(=O)Nc1ccc(Oc2cc(NC)ncn2)cc1 [Compound 7, N-(4-((6-(methylamino)pyrimidin-4-yl)oxy)phenyl) acrylamide] | 8800 | less active than compound 8 | 7700 ± 1300 | 9900 ± 1200 | IC50 [4]: 60 nM
4 | CNc1cc(Oc2cccc(NC(=O)C(C)(C)CCl)c2)ncn1 [Compound 11, 3-chloro-2,2-dimethyl-N-(3-((6-(methylamino)pyrimidin-4-yl)oxy)phenyl) propenamide] | – | less potent | – | – | –
5 | CNc1cc(Oc2cccc(NC(=O)CF)c2)ncn1 [Compound 12, 2-fluoro-N-(3-((6-(methylamino)pyrimidin-4-yl)oxy)phenyl)acetamide] | 7800 | attenuated activity | – | – | IC50 [5]: 7700 ± 20000 nM; IC50 [6]: 7800 ± 5000 nM
6 | CNc1cc(Oc2cccc(NC(=O)COC)c2)ncn1 [Compound 13, 2-methoxy-N-(3-((6-(methylamino)pyrimidin-4-yl)oxy)phenyl)acetamide] | – | attenuated activity | – | – | –
7 | O=C(CCl)Nc1cccc(Oc2cc(N3CCOCC3)ncn2)c1 [Compound 14, 2-chloro-N-(3-((6-morpholinopyrimidin-4-yl)oxy)phenyl)acetamide] | – | – | – | – | MEK7 IC50, first experiment (IC50±SEM, n=3) [5]: 1300 ± 3400 nM
8 | O=C(CCl)Nc1cccc(Oc2cc(NCCc3ccccc3)ncn2)c1 [Compound 18] | 1200 | – | 730 ± 220 | 1700 | –
9 | O=C(CCl)Nc1cccc(Oc2cc(NCCc3ccc(F)cc3)ncn2)c1 [Compound 20, 2-chloro-N-(3-((6-((4-fluorophenethyl)amino)pyrimidin-4-yl)oxy)phenyl)acetamide] | 1200 | – | 710 ± 400 | 1600 ± 1800 | –
10 | COc1ccc(CCNc2cc(Oc3cccc(NC(=O)CCl)c3)ncn2)cc1OC [Compound 22, 2-chloro-N-(3-((6-((3,4-dimethoxyphenethyl)amino)pyrimidin-4-yl)oxy)phenyl)acetamide] | 1700 | – | 1900 ± 550 | 1400 ± 970 | –
11 | O=C(CCl)Nc1cccc(Oc2cc(NCc3ccccc3C(F)(F)F)ncn2)c1 [Compound 30, 2-chloro-N-(3-((6-((2-(trifluoromethyl)benzyl)amino)pyrimidin-4-yl)oxy)phenyl)acetamide] | 1200 | towards the micromolar range | 1100 ± 480 | 1300 ± 550 | –
12 | O=C(CCl)Nc1cccc(Oc2cc(NCc3ccc(F)c(C(F)(F)F)c3)ncn2)c1 [Compound 31, 2-chloro-N-(3-((6-((4-fluoro-3-(trifluoromethyl)benzyl)amino)pyrimidin-4-yl)oxy)phenyl)acetamide] | 3000 | – | 4200 ± 2500 | 1800 ± 1200 | –
13 | O=C(CCl)Nc1cccc(Oc2cc(NCc3cc(C(F)(F)F)cc(C(F)(F)F)c3)ncn2)c1 [Compound 33, N-(3-((6-((3,5-bis(trifluoromethyl)benzyl)amino)pyrimidin-4-yl)oxy)phenyl)-2-chloroacetamide] | – | – | 4000 ± 4400 | 8500 ± 9800 | –

Now from value to molecule, other results behind:

Row | IC50 [1] [nM] | in vitro activity against MAP2K7, in words | IC50 [2] [nM] | IC50 [3] [nM] | SMILES | other results
14 | 260 | greatest potency | 300 ± 92 | 210 ± 180 | O=C(CCl)Nc1cccc(Oc2cc(NCCc3c[nH]c4ccccc34)ncn2)c1 [Compound 15, N-(3-((6-((2-(1H-indol-3-yl)ethyl)amino)pyrimidin-4-yl)oxy)phenyl)-2-chloroacetamide] | –
15 | 270 | – | 350 ± 150 | 190 ± 190 | O=C(CCl)Nc1cccc(Oc2cc(NC3CCCC3)ncn2)c1 [Compound 16, 2-chloro-N-(3-((6-(cyclopentylamino)pyrimidin-4-yl)oxy)phenyl)acetamide] | –
16 | 66 | greatest potency | 53 | 78 ± 91 | O=C(CCl)Nc1cccc(Oc2cc(NCCc3ccc(Cl)cc3)ncn2)c1 [Compound 19, 2-chloro-N-(3-((6-((4-chlorophenethyl)amino)pyrimidin-4-yl)oxy)phenyl)acetamide] | –
17 | 930 | – | 1200 ± 330 | 660 ± 310 | COc1ccc(CCNc2cc(Oc3cccc(NC(=O)CCl)c3)ncn2)cc1 [Compound 21, 2-chloro-N-(3-((6-((4-methoxyphenethyl)amino)pyrimidin-4-yl)oxy)phenyl)acetamide] | –
18 | 1100 | – | 1400 ± 810 | 830 ± 680 | O=C(CCl)Nc1cccc(Oc2cc(NCCc3ccc4c(c3)OCO4)ncn2)c1 [Compound 23, N-(3-((6-((2-(benzo[d][1,3]dioxol-5-yl)ethyl)amino)pyrimidin-4-yl)oxy)phenyl)-2-chloroacetamide] | –
19 | 110 | ten-fold attenuation | 140 ± 87 | 87 ± 42 | CN(Cc1ccccc1)c1cc(Oc2cccc(NC(=O)CCl)c2)ncn1 [Compound 24, N-(3-((6-(benzyl(methyl)amino)pyrimidin-4-yl)oxy)phenyl)-2-chloroacetamide] | –
20 | 74 | – | 110 | – | O=C(CCl)Nc1cccc(Oc2cc(NCc3cc(F)cc(F)c3)ncn2)c1 [Compound 26, 2-chloro-N-(3-((6-((3,5-difluorobenzyl)amino)pyrimidin-4-yl)oxy)phenyl)acetamide] | –
21 | 360 | – | 140 | 580 ± 200 | O=C(CCl)Nc1cccc(Oc2cc(NCc3ccc(F)cc3F)ncn2)c1 [Compound 27, 2-chloro-N-(3-((6-((2,4-difluorobenzyl)amino)pyrimidin-4-yl)oxy)phenyl)acetamide] | –
22 | 110 | – | 880 ± 29 | 140 ± 44 | O=C(CCl)Nc1cccc(Oc2cc(NCc3c(F)ccc(F)c3F)ncn2)c1 [Compound 28, 2-chloro-N-(3-((6-((2,3,6-trifluorobenzyl)amino)pyrimidin-4-yl)oxy)phenyl)acetamide] | –
23 | 42 | – | – | – | O=C(CCl)Nc1cccc(Oc2cc(NCc3ccc(F)c(F)c3)ncn2)c1 [Compound 29, 2-chloro-N-(3-((6-((3,4-difluorobenzyl)amino)pyrimidin-4-yl)oxy)phenyl)acetamide] | IC50 [4]: 42 nM; IC50 (read-out: MEK7 IC50, first experiment (IC50±SEM, n=3), 30 min preincubation, first value in brackets): 42 ± 36 nM; IC50 [6]: 42 ± 58 nM
24 | 800 | towards the micromolar range | 590 ± 150 | 1000 ± 220 | COc1ccccc1CNc1cc(Oc2cccc(NC(=O)CCl)c2)ncn1 [Compound 32, 2-chloro-N-(3-((6-((2-methoxybenzyl)amino)pyrimidin-4-yl)oxy)phenyl)acetamide] | –
25 | 260 | – | 390 ± 730 | 120 | COc1ccc(CNc2cc(Oc3cccc(NC(=O)CCl)c3)ncn2)cc1OC [Compound 35, 2-chloro-N-(3-((6-((3,4-dimethoxybenzyl)amino)pyrimidin-4-yl)oxy)phenyl)acetamide] | –
